Structures are written as SMILES. Where a name gives a salt, the structure may show the parent alone.

Holding throughout (test): In vitro MIC, agar dilution
Common to all, as to format: cell-based
Background: Agar dilution tests growth on a series of plates holding different concentrations.

In test [1] the test system is S. aureus Col8A(Meth^S)(lac^-). The settings on record: S. aureus Col8A(Meth^S)(lac^-); for MIC: Staphylococcus aureus, read-out: minimum inhibitory concentration (MIC). The method, boiled down: (§1)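 Two-fold dilutions (128 to ≤0.25 μg/mL, in duplicate) were poured into Mueller-Hinton agar. Log-phase broth cultures were spot-inoculated at about 10^4 cfu per spot and incubated 35-36°C for 16-20 hours; the MIC was the lowest concentration inhibiting growth. Col is a high-level PBP2a producer; Col 8A is its isogenic PBP2a-lacking partner.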

For test [2], the system named is S. aureus Col(Meth^R)(lac^-). Conditions: for MIC: Staphylococcus aureus, read-out: minimum inhibitory concentration (MIC). The method, boiled down:
as §1

The test system of test [3] is S. aureus PC1(Meth^S)(lac^+). Conditions: for MIC: Staphylococcus aureus, read-out: minimum inhibitory concentration (MIC). In a few lines: (§2)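 Two-fold dilutions of compound (highest working concentration 128 μg/mL, down to ≤0.25 μg/mL, in duplicate) were set into Mueller-Hinton agar. Plates were spot-inoculated at about 10^4 cfu per spot from log-phase cultures and incubated 16-20 hours at 35-36° C. MIC is the lowest concentration inhibiting growth.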

The test system of test [4] is S. aureus Spain #356(Meth^R). Conditions: for MIC: Staphylococcus aureus, read-out: minimum inhibitory concentration (MIC). In a few lines:
as §2

In test [5] the test system is S. aureus 76(Meth^R)(lac^+). Conditions: for MIC: Staphylococcus aureus, read-out: minimum inhibitory concentration (MIC). In a few lines:
as §2

Test [6] relates to E. faecalis VanB(Van^R). Conditions: for MIC: Enterococcus faecalis, read-out: minimum inhibitory concentration (MIC). The method, boiled down:
as §2

For test [7], the system named is E. faecalis ATCC 29212. The settings on record: for MIC: Enterococcus faecalis, ATCC29212, read-out: minimum inhibitory concentration (MIC). In a few lines: as §2
The test system of test [8] is E. faecium A491(Amp^R). The settings on record: for MIC: Enterococcus faecium, read-out: minimum inhibitory concentration (MIC). In a few lines:
as §2

Test [9] concerns E. faecium VanA(Van^R). Conditions: for MIC: Enterococcus faecium, read-out: minimum inhibitory concentration (MIC). In a few lines:
as §2

Test [10] relates to S. haemolyticus 05(Meth^R). Conditions: for MIC: Staphylococcus haemolyticus, read-out: minimum inhibitory concentration (MIC). The method, boiled down: as §2
The test system of test [11] is S. aureus ATCC 33593(Meth^R). Conditions: for MIC: Staphylococcus aureus, ATCC33593, read-out: minimum inhibitory concentration (MIC). The method, boiled down:
as §2

Test [12] concerns E. coli ATCC 25992. Conditions: for MIC: Escherichia coli, ATCC25992, read-out: minimum inhibitory concentration (MIC). In a few lines:
as §2

The subject of test [13] is P. aeruginosa ATCC 27853. The settings on record: for MIC: Pseudomonas aeruginosa, ATCC27853, read-out: minimum inhibitory concentration (MIC). The method, boiled down: as §2
Test [14] deals with S. aureus ATCC 29213. The settings on record: for MIC: Staphylococcus aureus, ATCC29213, read-out: minimum inhibitory concentration (MIC). In a few lines: as §2
Test [15] deals with E. faecium ATCC 35667. Conditions: for MIC: Enterococcus faecium, ATCC35667, read-out: minimum inhibitory concentration (MIC). The method, boiled down: as §2
The test system of test [16] is S. aureus ATCC 13709(Meth^S). Conditions: for minimum inhibitory concentration (MIC): S. aureus ATCC 13709(Meth^S); for MIC: Staphylococcus aureus, ATCC13709, S. aureus ATCC 13709(Meth^S), read-out: minimum inhibitory concentration (MIC). The method, boiled down:
as §2

For `CNCCNCCSCc1nnsc1SC1=C(C(=O)O)N2C(=O)[C@@H](NC(=O)/C(=N\O)c3nc(N)sc3Cl)[C@H]2SC1.O=C(O)C(F)(F)F` [Cmpd 22, (7R)-7-[(Z)-2-(2-amino-5-chlorothiazol-4-yl)-2-(hydroxyimino)acetamido]-3-[(methylaminoethylaminoethylthiomethyl)-1,2,3-thiadiazol-5-ylthio]-3-cephem-4-carboxylate, trifluoroacetic acid salt], the “minimum inhibitory concentration (MIC)” value in test [1] was 0.5 µg/mL; in test [2], 2 µg/mL; in [3], 1 µg/mL; in [4] it was 2 µg/mL; in [5], 2 µg/mL; in test [6] it was 0.5 µg/mL. For the same molecule, the “minimum inhibitory concentration (MIC)” value in [7] came to 0.13 µg/mL; in [8] it was 16 µg/mL; in [9], 2 µg/mL; in [10], 2 µg/mL; in test [11], 2 µg/mL; in [12] it was 8 µg/mL. In addition, the “minimum inhibitory concentration (MIC)” value in test [13] is > 32 µg/mL; in test [14], 0.25 µg/mL; in test [15], 1 µg/mL; in [16], 1 µg/mL.

Consider `N=CNCCSCc1cnccc1SC1=C(C(=O)O)N2C(=O)[C@@H](NC(=O)/C(=N\O)c3csc(N)n3)[C@H]2SC1.O=C(O)C(F)(F)F` [Cmpd 25, (7R)-7-[(Z)-2-(aminothiazol-4-yl)-2-(hydroxyimino)acetamido]-3-(3-(N-formamidoyl)aminoethylthiomethylpyrid-4-ylthio)-3-cephem-4-carboxylate, trifluoroacetic acid salt], for which the “minimum inhibitory concentration (MIC)” value in [1] was found to be 0.25 µg/mL; in test [2] it was 1 µg/mL; in test [3] it was 0.25 µg/mL; in [4], 2 µg/mL; in test [5], 2 µg/mL; in test [6], 0.13 µg/mL. In addition, the “minimum inhibitory concentration (MIC)” value in [7] amounted to 0.13 µg/mL; in test [8], 32 µg/mL; in test [9] it was 2 µg/mL; in [10], 2 µg/mL; in test [11] it was 1 µg/mL; in [12], 4 µg/mL. The “minimum inhibitory concentration (MIC)” value was > 32 µg/mL in [13], 0.25 µg/mL in [14], 1 µg/mL in [15] and 0.25 µg/mL in [16].

On to `N=CNCCCSCc1cnccc1SC1=C(C(=O)O)N2C(=O)[C@@H](NC(=O)/C(=N\O)c3nc(N)sc3Cl)[C@H]2SC1` [Cmpd 34, (7R)-7-[(Z)-2-(2-amino-5-chlorothiazol-4-yl)-2-(hydroxyimino)acetamido]-3-(3-(3-N-formamidoylaminopropylthiomethyl)pyrid-4-ylthio)-3-cephem-4-carboxylate, trifluoroacetic acid salt], for which the MIC was ≤ 0.06 µg/mL in test [1]; 1 µg/mL in test [2]; 0.13 µg/mL in test [3]; 1 µg/mL in test [4]; 1 µg/mL in [5]; ≤ 0.06 µg/mL in [6]. In addition, the MIC was ≤ 0.06 µg/mL in [7]; 4 µg/mL in test [8]; 0.5 µg/mL in test [9]; 2 µg/mL in test [10]; 1 µg/mL in test [11]; 4 µg/mL in test [12]. The MIC was > 32 µg/mL in test [13], ≤ 0.06 µg/mL in [14], 0.25 µg/mL in test [15] and ≤ 0.06 µg/mL in test [16].

Take `NCC(=O)NCCCSCc1cnccc1SC1=C(C(=O)O)N2C(=O)[C@@H](NC(=O)/C(=N\O)c3nc(N)sc3Cl)[C@H]2SC1` [Cmpd 35, (7R)-7-[(Z)-2-(2-amino-5-chlorothiazol-4-yl)-2-(hydroxyimino)acetamido]-3-[3-(glycyl)aminopropylthiomethylpyrid-4-ylthio]-3-cephem-4-carboxylate, trifluoroacetic acid salt]: the MIC in [1] turned out to be 0.25 µg/mL; in [2], 2 µg/mL; in test [3] it was 0.5 µg/mL; in [4] it was 2 µg/mL; in test [5], 2 µg/mL; in test [6], 0.25 µg/mL. Besides, the MIC in [7] is ≤ 0.06 µg/mL; in test [8], 4 µg/mL; in test [9] it was 0.5 µg/mL; in test [10], 4 µg/mL; in test [11], 2 µg/mL; in test [12], 8 µg/mL. Besides, the MIC in test [13] was > 32 µg/mL; in test [14] it was 0.25 µg/mL; in test [15], 0.25 µg/mL; in test [16] it was 0.25 µg/mL.

As to `NCCSCc1nnsc1SC1=C(C(=O)O)N2C(=O)[C@@H](NC(=O)Cc3ccccc3)[C@H]2SC1.O=C(O)C(F)(F)F` [Cmpd 37, (7R)-7-[(phenylacetyl)amino]-3-(4-(2-aminoethylthiomethyl)-1,2,3-thiadiazol-5-ylthio)-3-cephem-4-carboxylate, trifluoroacetic acid salt], the MIC was ≤ 0.06 µg/mL in [1]; 0.5 µg/mL in [2]; 1 µg/mL in [3]; 8 µg/mL in [4]; 4 µg/mL in test [5]; 0.5 µg/mL in test [6]. Besides, the MIC was 0.25 µg/mL in test [7]; > 32 µg/mL in test [8]; 2 µg/mL in test [9]; 8 µg/mL in test [10]; 16 µg/mL in [11]; > 32 µg/mL in [12]. The MIC in test [13] is > 32 µg/mL; in test [14], 0.5 µg/mL; in test [15], 0.5 µg/mL; in [16] it was ≤ 0.06 µg/mL.

For `NCCSCc1nnsc1SC1=C(C(=O)O)N2C(=O)[C@@H](NC(=O)/C(=N\O)c3csc(N)n3)[C@H]2SC1` [Cmpd 38, (7R)-7-[(Z)-2-(aminothiazol-4-yl)-2-(hydroxyimino)acetamido]-3-(4-(2-aminoethylthiomethyl)-1,2,3-thiadiazol-5-ylthio)-3-cephem-4-carboxylate, trifluoroacetic acid salt], the MIC in test [1] was 0.13 µg/mL; in test [2], 1 µg/mL; in [3], 0.25 µg/mL; in test [4], 1 µg/mL; in test [5], 1 µg/mL; in test [6] it was 0.13 µg/mL. For the same molecule, the MIC in [7] was 0.13 µg/mL; in test [8], > 32 µg/mL; in test [9], 2 µg/mL; in test [10], 2 µg/mL; in test [11], 1 µg/mL; in test [12], 2 µg/mL. Also, the MIC in test [13] is > 32 µg/mL; in [14], 0.13 µg/mL; in test [15] it was 1 µg/mL; in test [16], 0.13 µg/mL.
